Assay results from patent publication US9486491B2, “Collagen peptide composition production method, DPP-4 inhibitor, and antihyperglycemic agent” (Nippi, Incorporated, priority 2012, dated 2016).
In brackets after ≈: the same amount, converted by molar mass. Non-standard residues stand in square brackets, D forms with d. Residues, ends and D or L forms follow the SMILES beside them. No end group written: not given here. Hyp = O=C(O)[C@@H]1C[C@@H](O)CN1

Experiments:
[1] = biological target: T1, DPP-4 (derived from porcine kidney) (Sus scrofa, UniProt P22411); test: DPP-4 inhibition rate / IC50 value measurement (Gly-Pro-MCA fluorescence); format: biochemical; details: individual oligopeptides
T1 construct: purchased Sigma; host or cells: porcine kidney (tissue-derived enzyme)
T1 sequence (P22411 whole entry): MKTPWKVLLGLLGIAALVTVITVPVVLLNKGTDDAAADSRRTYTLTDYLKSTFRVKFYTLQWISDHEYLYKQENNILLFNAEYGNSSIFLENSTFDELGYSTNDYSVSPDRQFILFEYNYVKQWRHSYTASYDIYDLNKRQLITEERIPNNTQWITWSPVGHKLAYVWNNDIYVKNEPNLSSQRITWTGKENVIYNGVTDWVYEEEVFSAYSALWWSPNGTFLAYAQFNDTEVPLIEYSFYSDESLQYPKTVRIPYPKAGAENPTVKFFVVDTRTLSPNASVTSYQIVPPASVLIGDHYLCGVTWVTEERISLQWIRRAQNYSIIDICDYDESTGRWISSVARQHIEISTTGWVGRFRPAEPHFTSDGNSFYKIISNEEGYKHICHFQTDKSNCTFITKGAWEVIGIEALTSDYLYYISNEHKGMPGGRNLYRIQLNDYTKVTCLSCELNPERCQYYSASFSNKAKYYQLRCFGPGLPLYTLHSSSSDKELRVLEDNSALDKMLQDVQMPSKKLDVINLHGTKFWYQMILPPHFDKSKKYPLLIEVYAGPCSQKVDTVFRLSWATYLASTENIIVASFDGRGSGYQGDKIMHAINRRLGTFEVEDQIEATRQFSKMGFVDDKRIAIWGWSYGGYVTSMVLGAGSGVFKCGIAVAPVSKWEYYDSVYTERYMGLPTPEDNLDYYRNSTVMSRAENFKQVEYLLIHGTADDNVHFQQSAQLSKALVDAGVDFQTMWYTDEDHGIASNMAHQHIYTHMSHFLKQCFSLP
Procedure: Thirty-five μl of sample solution obtained by dissolving a sample in 50 mM tris-hydrochloric acid buffer (pH 7.5) and 15 μl of DPP-4 (manufactured by Sigma, derived from porcine kidney; 8.6 mU/ml) that was dissolved in 50 mM tris-hydrochloric acid buffer (pH 7.5) were mixed in a microtiter plate well (manufactured by NUNC, trade name “237015”) and incubated at 37° C. for 10 minutes.
To this, 50 μl of substrate solution (obtained by dissolving glycylproline-4-methylcoumarin-7-amide (Gly-Pro-MCA) in 50 mM tris-hydrochloric acid buffer (pH 7.5) at 10 μM) kept at 37° C. in advance was added and mixed to react at 37° C. for 20 minutes.
The fluorescence intensity of 7-amino-4-methylcoumarin (AMC) released by DPP-4 was measured with time using a microplate reader-type fluorescence detector (manufactured by Corona Electric Co., Ltd., trade name “SH-9000”). As for the wavelength used for the measurement, the excitation wavelength was 380 nm and the measurement wavelength was 460 nm Instead of sample, 50 mM tris-hydrochloric acid buffer (pH 7.5) in an identical amount was employed as a control and the fluorescence intensity thereof was measured.
The activity of DPP-4 was expressed in an average gradient of change in the amount of fluorescence intensity during a reaction time. As for a DPP-4 inhibition rate, difference was calculated by, with the control as 100%, subtracting the activity of sample from the above-mentioned control to use as the inhibition rate (%).
According to the above method of measuring the DPP-4 inhibition rate, a 50% inhibitory concentration (IC50 value) of the DPP-4 activity in terms of one ml of reaction system was calculated by using the inhibition rates obtained by changing the concentration of sample.

[2] = Glucose tolerance test in mice, blood glucose level; format: in vivo, C57BL/6J male mice; details: 3 mg/kg oral one hour before glucose; 15 minutes after the administration of glucose
Procedure: (1) Twenty-five C57BL/6J male mice at an age of eight weeks (Charles River Laboratories Japan) were subjected to habituation breeding for one week. For seven days prior to a glucose tolerance test, each mouse was given 0.25 ml of distilled water to acclimate to oral administration.
(2) On the day before the glucose tolerance test, the mouse was fasted except for water for 18 hours starting at 16 o'clock. […] The five groups consist of a positive control group, collagen peptide composition administered groups (400 mg/kg, 1000 mg/kg, and 2000 mg/kg), and a negative control group.
(i) The positive control group was orally administered sitagliptin (manufactured by MSD, Januvia) at 3 mg/kg one hour before administration of 20 w/v % glucose aqueous solution.
(ii) The collagen peptide composition administered groups were orally administered the above peptide powder dissolved in distilled water to be a dose of 400 mg/kg, 1000 mg/kg, or 2000 mg/kg 15 minutes before the administration of glucose.
(iii) The negative control group was orally administered 20 ml/kg of distilled water 15 minutes before the administration of glucose.
(3) The glucose was administered. […]
(4) After the administration of glucose, the blood was drawn from the tail at 15, 30, 60, and 120 minutes; and the blood glucose level was measured using a simple blood glucose measuring instrument (manufactured by Arkray Factory, GT-164). […]

| Compound | IC50 value [1] [µg/mL] | blood glucose level [2] [mg/dL] |
| --- | --- | --- |
| CC(C)C[C@H](N)C(=O)N1C[C@H](O)C[C@H]1C(=O)NCC(=O)O [LeuHypGly] (H-Leu-[Hyp]-Gly-OH; N-terminus and C-terminus assumed) | 39 (≈ 129 µM) | – |
| C[C@H](N)C(=O)N1C[C@H](O)C[C@H]1C(=O)NCC(=O)O [AlaHypGly] (H-Ala-[Hyp]-Gly-OH; N-terminus and C-terminus assumed) | 2450 (≈ 9450 µM) | – |
| CC[C@H](C)[C@H](N)C(=O)N1C[C@H](O)C[C@H]1C(=O)NCC(=O)O [IleHypGly] (H-Ile-[Hyp]-Gly-OH; N-terminus and C-terminus assumed) | 150 (≈ 498 µM) | – |
| CC(C)C[C@H](N)C(=O)N1C[C@H](O)C[C@H]1C(=O)NCC(=O)N1CCC[C@H]1C(=O)N[C@@H](C)C(=O)O [LeuHypGlyProAla] (H-L[Hyp]GPA-OH; N-terminus and C-terminus assumed) | 390 (≈ 831 µM) | – |
| GPIGPV [GlyProIleGlyProVal] | 5 | – |
| N[C@@H](CC(=O)N1CCn2c(nnc2C(F)(F)F)C1)Cc1cc(F)c(F)cc1F [sitagliptin] | – | 220 |
